# Results published in patent US8748419B2, “Treating obesity with muscarinic receptor M1 antagonists” (priority 2006, dated 2014).
# Legend:
# [1] = Reduction in weight gain of rats on a high fat diet (two-week treatment); type: in vivo, Sprague-Dawley rats; conditions: for % Reduction: treatment minus vehicle % weight gain
# Description: Reduction in Weight Gain: Three- to four-month-old (475-550 grams) male, Sprague-Dawley rats (individually housed) were used to assess compounds for their ability to prevent weight gain. At the onset of chronic experiments, rats had been maintained (ad libitum access) on a “high fat” diet (BioServ Diet #F3282 or Research Diets #12451) for approximately one month. Individual body weights and water consumptions were recorded three times per week throughout the duration of the experiment. After approximately two weeks of data collection, rats were counter-balanced to produce treatment groups with equivalent mean body weights. Under isofluorane-induced anesthesia, rats were surgically implanted (subscapular, subcutaneous [sc] placement) with osmotic mini-pumps (Alzet 2mL2) containing the appropriate drug concentration (based on mean body weights and calculated durations of delivery). Alternatively, for studies using the oral route of administration, rats were dosed by gavage daily over 14 days at a volume of 3 mL/kg. Data collection was continued under drug treatment for approximately two more weeks. Change in body weight (expressed in grams) was calculated for the treatment interval. In this assay, vehicle-treated rats typically gain approximately 35-40 grams (+9%) over the two-week interval. Treatment effects are presented in Table 3 as % Weight Gain=[(Body Weight at End of Drug Infusion−Baseline Body Weight)/Baseline Body Weight]×100%, for both Vehicle and Treatment groups; as well as % Reduction=(% Weight Gain for Treatment group−% Weight Gain for Vehicle group). Body weights throughout the treatment period are presented in FIGS. 11-15 as the percentage of baseline body weight. Similar superscripts in the Dose column of Table 3 denote values derived from the same experiment (to facilitate comparisons between individual treatments and co-administrations). Statistical analyses were performed using a 1-way ANOVA (analysis of variance) followed by a Bonferroni multiple comparison test with the overall alpha set at 0.05. In Table 3, asterisks (*) denote significant effects compared to vehicle-treated rats, while letters (a or b) denote significant effects compared to rats treated with a single compound (“a” for significance from antidepressant and “b” for significance from telenzepine). In Table 3, one symbol denotes p<0.05, two symbols denote p<0.01 and three symbols denote p<0.001). The symbols used for denoting statistical significance may be different in the corresponding figures.
# [2] = Appetite suppression: high fat food consumption in fasted rats (4-Hour and 24-Hour Consumption); type: in vivo, Sprague-Dawley rats
# Text: Appetite Suppression: Three-month-old (300-350 grams) male, Sprague-Dawley rats (individually housed) were used to assess compounds for their appetite suppressant effects. Rats were acclimatized to a “high fat” food diet (BioServ Diet #F3282 or Research Diets #12451) for two weeks prior to testing (access to food and water ad libitum). One day prior to the experiment (at 5:00 PM), food was removed from the cages in order to motivate feeding when the food was returned the following morning (water remained available throughout the experiment). Prior to presentation of the food, rats (n=8-10/dose group) were dosed intraperitoneally (ip) or orally (po) with the compound under investigation, returned to their home cage and immediately given a pre-weighed amount of food. Four hours after administration, the food was removed from the cage, weighed, recorded (4-Hour Consumption) and returned to the rat until the following morning. Twenty-four hours after administration, the remaining food was again weighed and recorded (24-Hour Consumption). Cumulative consumption (expressed in grams) was calculated for both the four and the twenty-four hour intervals. In this assay, vehicle-treated rats typically consume approximately 8 grams over the four-hour interval and approximately 25 grams over the twenty-four-hour interval.
# Treatment effects are presented in Table 1 and FIGS. 1-5 (4-Hour Consumption) and Table 2 and FIGS. 6-10 (24-Hour Consumption). The effects are given as both Raw Consumption (in grams ±SEM [1 standard error of the mean]) and as % Reduction in 4-Hour or 24-Hour Consumption=[1-(Consumption following Drug Treatment/Consumption following Vehicle Treatment)]×100%. Similar superscripts in the Dose column of Tables 1 and 2 denote values derived from the same experiment (to facilitate comparisons between individual treatments and co-administrations). Statistical analyses were performed using a 1-way ANOVA (analysis of variance) followed by a Bonferroni multiple comparison test with the overall alpha set at 0.05. In Tables 1 and 2, asterisks (*) denote significant effects compared to vehicle-treated rats, while letters (a or b) denote significant effects compared to rats treated with a single compound (“a” for significance from antidepressant and “b” for significance from telenzepine). In Tables 1 and 2, one symbol denotes p<0.05, two symbols denote p<0.01 and three symbols denote p<0.001). The symbols used for denoting statistical significance may be different in the corresponding figures.
# [3] = directly injected into the midbrain; cited from earlier work
# [4] = 24 h, 10 mg/kg ip, experiment e
# [5] = 24 h, 10 mg/kg po, experiment c
# [6] = 24 h, 30 mg/kg po, experiment c
structure (smiles),measurement,setting,value
"Cc1scc2c1N(C(=O)CN1CCN(C)CC1)c1ccccc1NC2=O [Telenzepine, 4,9-Dihydro-3-methyl-4-[(4-methyl-1-piperazinyl)acetyl]-10H-thieno[3,4-b][1,5]benzodiazepin-10-one]",Treatment: % Weight Gain,"[1]; 0.3 mg/kg sc, experiment c",4.4 ± 0.6%
same,% Reduction,"[1]; 0.3 mg/kg sc, experiment c",−0.9%
same,Treatment: % Weight Gain,"[1]; 1 mg/kg po, experiment d",3.3 ± 0.6%
same,% Reduction,"[1]; 1 mg/kg po, experiment d",−3.1%
same,reduction in body weight compared to vehicle treated rats,[1]; 3 mg/kg of telenzepine alone,3.8%
same,Treatment: % Weight Gain,"[1]; 3 mg/kg sc, experiment a",1.5 ± 1.0%
same,% Reduction,"[1]; 3 mg/kg sc, experiment a",−7.1%
same,Treatment: % Weight Gain,"[1]; 3 mg/kg sc, experiment b",4.3 ± 0.8%
same,% Reduction,"[1]; 3 mg/kg sc, experiment b",−3.8%
same,% Reduction in Consumption,"[2]; 4 h, 1 mg/kg ip, experiment b",43%
same,Treatment Consumption,"[2]; 4 h, 1 mg/kg ip, experiment b",4.0 ± 0.50 g/4 Hrs
same,% Reduction in Consumption,"[2]; 4 h, 1 mg/kg ip, experiment e",38%
same,Treatment Consumption,"[2]; 4 h, 1 mg/kg ip, experiment e",5.7 ± 0.63 g/4 Hrs
same,Treatment Consumption,"[2]; 4 h, 3 mg/kg ip, experiment a",4.2 ± 0.36 g/4 Hrs
same,% Reduction in Consumption,"[2]; 4 h, 3 mg/kg ip, experiment a, 3 mg/kg",45%
same,% Reduction in Consumption,"[2]; 4 h, 3 mg/kg ip, experiment a, listed as telenzepine, 3 mg/kg",45%
same,Treatment Consumption,"[2]; 4 h, 3 mg/kg ip, experiment b",4.5 ± 0.40 g/4 Hrs
same,% Reduction in Consumption,"[2]; 4 h, 3 mg/kg ip, experiment b, 3 mg/kg",35%
same,% Reduction in Consumption,"[2]; 4 h, 3 mg/kg ip, experiment b, listed as telenzepine, 3 mg/kg",35%
same,% Reduction in Consumption,"[2]; 4 h, 3 mg/kg ip, experiment e",40%
same,Treatment Consumption,"[2]; 4 h, 3 mg/kg ip, experiment e",5.5 ± 0.60 g/4 Hrs
same,% Reduction in Consumption,"[2]; 4 h, 10 mg/kg ip, experiment e",56%
same,Treatment Consumption,"[2]; 4 h, 10 mg/kg ip, experiment e",4.1 ± 0.55 g/4 Hrs
same,% Reduction in Consumption,"[2]; 4 h, 10 mg/kg po, experiment c",28%
same,Treatment Consumption,"[2]; 4 h, 10 mg/kg po, experiment c",7.4 ± 0.64 g/4 Hrs
same,% Reduction in Consumption,"[2]; 4 h, 30 mg/kg po, experiment c",36%
same,Treatment Consumption,"[2]; 4 h, 30 mg/kg po, experiment c",6.6 ± 1.01 g/4 Hrs
same,% Reduction in Consumption,"[2]; 24 h, 1 mg/kg ip, experiment b",16%
same,Treatment Consumption,"[2]; 24 h, 1 mg/kg ip, experiment b",20.9 ± 0.78 g/24 Hrs
same,% Reduction in Consumption,"[2]; 24 h, 1 mg/kg ip, experiment e",18%
same,Treatment Consumption,"[2]; 24 h, 1 mg/kg ip, experiment e",23.6 ± 1.01 g/24 Hrs
same,Treatment Consumption,"[2]; 24 h, 3 mg/kg ip, experiment a",17.5 ± 1.38 g/24 Hrs
same,% Reduction in Consumption,"[2]; 24 h, 3 mg/kg ip, experiment a, 3 mg/kg",27%
same,% Reduction in Consumption,"[2]; 24 h, 3 mg/kg ip, experiment a, listed as telenzepine, 3 mg/kg",27%
same,Treatment Consumption,"[2]; 24 h, 3 mg/kg ip, experiment b",19.4 ± 0.94 g/24 Hrs
same,% Reduction in Consumption,"[2]; 24 h, 3 mg/kg ip, experiment b, 3 mg/kg",22%
same,% Reduction in Consumption,"[2]; 24 h, 3 mg/kg ip, experiment b, listed as telenzepine, 3 mg/kg",22%
same,% Reduction in Consumption,"[2]; 24 h, 3 mg/kg ip, experiment e",32%
same,Treatment Consumption,"[2]; 24 h, 3 mg/kg ip, experiment e",19.7 ± 0.95 g/24 Hrs
same,% Reduction in Consumption,[2]; [4],50%
same,Treatment Consumption,[2]; [4],14.5 ± 1.29 g/24 Hrs
same,% Reduction in Consumption,[2]; [5],39%
same,Treatment Consumption,[2]; [5],18.5 ± 2.33 g/24 Hrs
same,% Reduction in Consumption,[2]; [6],56%
same,Treatment Consumption,[2]; [6],13.3 ± 2.69 g/24 Hrs
same,effect on consumption,"[2]; all doses tested (ip), given alone",significantly reduced consumption
same,GABA efflux,[3],reduced GABA efflux
